From patent publication US20250228879A1, “METHOD AND COMPOSITION FOR CONTROLLING ACNE USING RHAMNOLIPIDS” (Stepan Company, priority 2022, published 2025)
Marks after values point to notes of the source that are not given here.

Legend:
[1] = tested on: C. acnes ATCC 6919; experiment: Efficacy against C. acnes, aqueous test samples (Example 1); type: cell-based, Cutibacterium acnes; conditions: Tested Conc. 0.3%, pH 2.7
Protocol: A study was conducted to determine the antimicrobial activity of a rhamnolipid mixture of the present technology alone against C. acnes, available from American Type Culture Collection (ATCC), Manassas, VA as ATCC 6919. Test samples were prepared by mixing 6.0% by weight of the rhamnolipid mixture into an aqueous base. Two samples were prepared, one sample using a rhamnolipid mixture processed by a non-solvent purification process, and the other sample using a rhamnolipid mixture processed by a solvent extraction process. The rhamnolipid mixtures in each sample comprise a weight ratio of mono-rhamnolipids to di-rhamnolipids in the range of 43:57 to 45:55.

[2] = tested on: C. acnes; experiment: Labskin efficacy of rhamnolipids compared to salicylic acid and benzoyl peroxide (Example 5); type: cell-based, Cutibacterium acnes
Protocol: A study was conducted to compare the efficacy of the rhamnolipid mixture of the present technology with salicylic acid and benzoyl peroxide, two common over-the-counter anti-acne actives. The samples containing salicylic acid and benzoyl peroxide were additionally mixed using a tip sonicator to ensure complete dissolving or adequeate distribution of the active.
The skin analog substrate (Labskin) was prepared as described in Example 4. The C. acnes microorganism was cultured as described in Example 4, and each Labskin unit was inoculated as described in Example 4. The Labskin units were incubated at 37° C. for 24 hours, and after 24 hours, were treated with 11 microliters of control (dPBS), vehicle, or test item. All Labskin units were then incubated at 37° C. for 24 hours, after which biopsy samples of 8 mm in diameter were aseptically removed from the center of each Labskin unit and viable microbial numbers were assayed by recovery on appropriate culture medium.
Technical replicate counts obtained from selective solid media were averaged and used to calculate the colony forming units per square cm (CFU cm^−2). The enumeration of C. acnes for the control, vehicle, and test samples is shown graphically in FIG. 4.
The Log10 difference between the dPBS control and the vehicle and test samples was calculated as described in Example 4, and the Logio difference results are shown graphically in FIG. 5.

[3] = tested on: Cutibacterium acnes (ATCC #6919); experiment: Time-dependency comparative testing, flow cytometry viability (Example 6); type: cell-based
Protocol: A study was conducted to compare the time-dependent efficacy of a rhamnolipid mixture of the present technology (Example 6 Composition), a commercially available rhamnolipid product (Comparative Composition), and salicylic acid against Cutibacterium acnes (ATCC #6919). […] The Comparative Composition comprised a mixture of rhamnolipids having a mono-rhamnolipid: di-rhamnolipid ratio of about 4:96 Test samples were prepared by diluting the rhamnolipids and the salicylic acid in sterile water. […] The concentrations of salicylic acid actives in the test samples were 0.03 wt %, 0.1 wt %, and 0.3 wt %. Prior to initiation of the study, samples were sufficiently pre-reduced to remove oxygen by using an indirect atmospheric sequestering of oxygen using hydrogen reaction over palladium catalyst. […] The sample aliquots were neutralized by dilution in an oxygen-reducing buffer containing the flow cytometry dyes, SYTO 9 and Propidium Iodide. Samples were analyzed using flow cytometry where cells were characterized by morphology and viability in comparison to a deionized water control.

[4] = water at 25° C.; cited from earlier work
[5] = 15 min Exposure, Tested Conc. 0.03%
[6] = 15 min Exposure, Tested Conc. 0.10%
[7] = 15 min Exposure, Tested Conc. 0.30%
[8] = 60 min Exposure, Tested Conc. 0.03%
[9] = 60 min Exposure, Tested Conc. 0.10%
[10] = 60 min Exposure, Tested Conc. 0.30%

O=C(O)c1ccccc1O [Salicylic acid in DI Water, salicylic acid]
Reduction % ([1]; 1 h Exposure): >99.997% | Reduction Log10 CFU/mL ([1]; 1 h Exposure): >4.6 Log10 CFU/mL | Reduction % ([1]; 24 h Exposure): >99.995% | Reduction Log10 CFU/mL ([1]; 24 h Exposure): >4.3 Log10 CFU/mL | Enumeration of C. acnes compared with dPBS control (FIG. 4) ([2]; 0.5% w/w in 20% w/w Tween in dPBS, Labskin, 24 hours): slight decrease in the average amount of C. acnes | Log10 difference of C. acnes vs dPBS control (FIG. 5) ([2]; 0.5% w/w salicylic acid in 20% w/w Tween in dPBS): moderate decrease in C. acnes recovered | Log10 difference of C. acnes vs dPBS control (FIG. 5) ([2]; 2% w/w salicylic acid in 20% w/w Tween in dPBS): noticeable decrease in the recovered population of C. acnes | Log10 cells/mL Reduction [3, 5]: 0.10 Log10 cells/mL | Percent Reduction [3, 5]: 20.6% | Log10 cells/mL Reduction [3, 6]: 0.10 Log10 cells/mL | Percent Reduction [3, 6]: 20.6% | Log10 cells/mL Reduction [3, 7]: 0.57 Log10 cells/mL | Percent Reduction [3, 7]: 73.2% | Log10 cells/mL Reduction [3, 8]: 0.35 Log10 cells/mL | Percent Reduction [3, 8]: 55.2% | Log10 cells/mL Reduction [3, 9]: 1.14 Log10 cells/mL | Percent Reduction [3, 9]: 92.8% | Log10 cells/mL Reduction [3, 10]: >2.30 Log10 cells/mL | Percent Reduction [3, 10]: >99.5% | solubility limit in water [4]: 0.3% *

O=C(OOC(=O)c1ccccc1)c1ccccc1 [benzoyl peroxide]
Log10 difference of C. acnes vs dPBS control (FIG. 5) ([2]; benzoyl peroxide alone (5% and 2.5% w/w) in 20% w/w Tween in dPBS): significant decrease in the recovered population of C. acnes
